# Source: ChEMBL document CHEMBL1201862, “PubChem BioAssay data set” (2004)
#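 Exposure lasted 48 hours, with cells grown in 96-well plates and compounds tested at five concentrations. The concentration for 50% growth inhibition is given as GI50.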 Calls of active or inactive are those of the source. Rule as the data show it: active = GI50 up to about 1.1 µM and inactive = higher.
# Assays:
# Experiment in all cases: NCI tumour cell line growth inhibition, 48 h
# NCI-H23 = test system: NCI-H23
# DU-145 = test system: DU-145
# CAKI-1 = test system: CAKI-1
# SK-MEL-5 = test system: SK-MEL-5
# UO-31 = test system: UO-31
# BT-549 = test system: BT-549
# MDA-N = test system: MDA-N
# MCF7 = test system: MCF7
# OVCAR-5 = test system: OVCAR-5
# HOP-92 = test system: HOP-92
# SK-MEL-28 = test system: SK-MEL-28
# SN12C = test system: SN12C
# OVCAR-8 = test system: OVCAR-8
# HL-60 = test system: HL-60
# KM12 = test system: KM12
# LOX IMVI = test system: LOX IMVI
# CCRF-CEM = test system: CCRF-CEM
# MOLT-4 = test system: MOLT-4
# K562 = test system: K562
# SK-OV-3 = test system: SK-OV-3
Structure (SMILES),GI50 (NCI-H23),GI50 (DU-145),GI50 (CAKI-1),GI50 (SK-MEL-5),GI50 (UO-31),GI50 (BT-549),GI50 (MDA-N),GI50 (MCF7),GI50 (OVCAR-5),GI50 (HOP-92),GI50 (SK-MEL-28),GI50 (SN12C),GI50 (OVCAR-8),GI50 (HL-60),GI50 (KM12),GI50 (LOX IMVI),GI50 (CCRF-CEM),GI50 (MOLT-4),GI50 (K562),GI50 (SK-OV-3)
ClCc1c(-c2ccccc2)nn(-c2ccccc2)c1CCl,15.6 µM (inactive),14 µM (inactive),1.83 µM (inactive),12.4 µM (inactive),20.1 µM (inactive),> 10 µM (inactive),10.7 µM (inactive),8.2 µM (inactive),19.4 µM (inactive),2.81 µM (inactive),15.6 µM (inactive),19.4 µM (inactive),14.2 µM (inactive),3.14 µM (inactive),13.2 µM (inactive),,,,,
Nc1nc(O)c([I+]c2ccccc2)c(=O)[nH]1,> 100 µM (inactive),> 100 µM (inactive),> 100 µM (inactive),> 100 µM (inactive),85.1 µM (inactive),57.1 µM (inactive),> 100 µM (inactive),> 100 µM (inactive),> 100 µM (inactive),> 100 µM (inactive),> 100 µM (inactive),> 100 µM (inactive),> 100 µM (inactive),> 100 µM (inactive),> 100 µM (inactive),> 100 µM (inactive),> 100 µM (inactive),> 100 µM (inactive),> 100 µM (inactive),
Nc1nc(Cl)cc(Nc2cc(Cl)cc(Cl)c2)n1,23.1 µM (inactive),26.1 µM (inactive),23.4 µM (inactive),19.8 µM (inactive),19.6 µM (inactive),22.1 µM (inactive),23 µM (inactive),18.1 µM (inactive),31.9 µM (inactive),21.5 µM (inactive),,22 µM (inactive),14.2 µM (inactive),,20.9 µM (inactive),18.1 µM (inactive),28.5 µM (inactive),22.3 µM (inactive),30.8 µM (inactive),19.5 µM (inactive)
O=C1Oc2ccccc2C(=O)/C1=C/NC(=S)NCc1ccccc1,36.2 µM (inactive),93.1 µM (inactive),21 µM (inactive),69.5 µM (inactive),16.2 µM (inactive),5.09 µM (inactive),50.5 µM (inactive),> 100 µM (inactive),> 100 µM (inactive),> 100 µM (inactive),> 100 µM (inactive),56.5 µM (inactive),41.1 µM (inactive),42.7 µM (inactive),51.6 µM (inactive),69.3 µM (inactive),,54.3 µM (inactive),,> 100 µM (inactive)
CC(C)=CCC/C(C)=C/Cc1cc(/C=C/c2cc(O)c(CC=C(C)C)c(O)c2)cc(O)c1O [MAPPAIN],3.31 µM (inactive),13.7 µM (inactive),5.42 µM (inactive),2.12 µM (inactive),1.29 µM (inactive),3.29 µM (inactive),2.41 µM (inactive),3.45 µM (inactive),4.36 µM (inactive),3.93 µM (inactive),5.18 µM (inactive),1.95 µM (inactive),3.6 µM (inactive),0.502 µM (active),4.29 µM (inactive),2.31 µM (inactive),,1.93 µM (inactive),2.49 µM (inactive),8.87 µM (inactive)
OC1OC(c2ccco2)C(F)(F)C(F)(F)C1(F)F (stereo not given),,> 100 µM (inactive),,35.2 µM (inactive),59.6 µM (inactive),> 100 µM (inactive),> 100 µM (inactive),> 100 µM (inactive),> 100 µM (inactive),38 µM (inactive),> 100 µM (inactive),> 100 µM (inactive),> 100 µM (inactive),34.4 µM (inactive),19.9 µM (inactive),> 100 µM (inactive),21.9 µM (inactive),,> 100 µM (inactive),> 100 µM (inactive)
CCOC(=O)c1sc2nc(SC)nc(Nc3ccc4c(c3)OCO4)c2c1N,53 µM (inactive),35.8 µM (inactive),> 100 µM (inactive),44.1 µM (inactive),71.3 µM (inactive),33.7 µM (inactive),> 100 µM (inactive),30.6 µM (inactive),> 100 µM (inactive),17.4 µM (inactive),1.91 µM (inactive),59 µM (inactive),,> 100 µM (inactive),> 100 µM (inactive),> 100 µM (inactive),50.7 µM (inactive),> 100 µM (inactive),81.1 µM (inactive),
Cc1c(C(=O)O)n2c(C)nnc2c2ccccc12,> 100 µM (inactive),> 100 µM (inactive),> 100 µM (inactive),> 100 µM (inactive),61.5 µM (inactive),> 100 µM (inactive),> 100 µM (inactive),> 100 µM (inactive),> 100 µM (inactive),> 100 µM (inactive),> 100 µM (inactive),> 100 µM (inactive),> 100 µM (inactive),,> 100 µM (inactive),> 100 µM (inactive),> 100 µM (inactive),> 100 µM (inactive),> 100 µM (inactive),> 100 µM (inactive)
CCN1/C(=C/C#C/C(C)=C\c2sc3ccccc3[n+]2CC)Sc2ccccc21,,3.42 µM (inactive),2.39 µM (inactive),2.02 µM (inactive),2.03 µM (inactive),0.558 µM (active),2.9 µM (inactive),4.05 µM (inactive),3.44 µM (inactive),2 µM (inactive),3.35 µM (inactive),4.35 µM (inactive),2.07 µM (inactive),0.482 µM (active),1.28 µM (inactive),2.33 µM (inactive),,24.4 µM (inactive),0.269 µM (active),10.6 µM (inactive)
Clc1cccc(-c2nc3cccc4c3n2Cc2ncccc2-4)c1,> 100 µM (inactive),> 100 µM (inactive),8.02 µM (inactive),,,> 100 µM (inactive),> 100 µM (inactive),> 100 µM (inactive),> 100 µM (inactive),44.6 µM (inactive),> 100 µM (inactive),> 100 µM (inactive),92.3 µM (inactive),,> 100 µM (inactive),,> 100 µM (inactive),,> 100 µM (inactive),96.8 µM (inactive)
CCOC(=O)C1c2[nH]c3ccccc3c2CCN1C(=O)c1ccco1 (stereo not given),,> 10 µM (inactive),> 10 µM (inactive),> 10 µM (inactive),,> 10 µM (inactive),> 10 µM (inactive),> 10 µM (inactive),,> 10 µM (inactive),> 10 µM (inactive),> 10 µM (inactive),> 10 µM (inactive),> 10 µM (inactive),> 10 µM (inactive),,> 10 µM (inactive),> 10 µM (inactive),> 10 µM (inactive),> 10 µM (inactive)
Cc1c2c3ccccc3nc-2n(C)c2ccccc12,2.5 µM (inactive),3.67 µM (inactive),,0.437 µM (active),1.79 µM (inactive),3.71 µM (inactive),2.72 µM (inactive),1.41 µM (inactive),2.61 µM (inactive),2.61 µM (inactive),3.42 µM (inactive),1.64 µM (inactive),1.69 µM (inactive),3.29 µM (inactive),1.15 µM (inactive),,0.724 µM (active),0.339 µM (active),1.3 µM (inactive),1.25 µM (inactive)
